Measured values taken from paper PMC5215309 (European Journal of Nuclear Medicine and Molecular Imaging, 2016).

Molecular target: T1, PDE10A (Macaca fascicularis, UniProt A0A2K5WSP5)
T1 construct: native enzyme in living brain (in vivo PET; striatum, globus pallidus, substantia nigra)
T1 sequence (A0A2K5WSP5 1-791): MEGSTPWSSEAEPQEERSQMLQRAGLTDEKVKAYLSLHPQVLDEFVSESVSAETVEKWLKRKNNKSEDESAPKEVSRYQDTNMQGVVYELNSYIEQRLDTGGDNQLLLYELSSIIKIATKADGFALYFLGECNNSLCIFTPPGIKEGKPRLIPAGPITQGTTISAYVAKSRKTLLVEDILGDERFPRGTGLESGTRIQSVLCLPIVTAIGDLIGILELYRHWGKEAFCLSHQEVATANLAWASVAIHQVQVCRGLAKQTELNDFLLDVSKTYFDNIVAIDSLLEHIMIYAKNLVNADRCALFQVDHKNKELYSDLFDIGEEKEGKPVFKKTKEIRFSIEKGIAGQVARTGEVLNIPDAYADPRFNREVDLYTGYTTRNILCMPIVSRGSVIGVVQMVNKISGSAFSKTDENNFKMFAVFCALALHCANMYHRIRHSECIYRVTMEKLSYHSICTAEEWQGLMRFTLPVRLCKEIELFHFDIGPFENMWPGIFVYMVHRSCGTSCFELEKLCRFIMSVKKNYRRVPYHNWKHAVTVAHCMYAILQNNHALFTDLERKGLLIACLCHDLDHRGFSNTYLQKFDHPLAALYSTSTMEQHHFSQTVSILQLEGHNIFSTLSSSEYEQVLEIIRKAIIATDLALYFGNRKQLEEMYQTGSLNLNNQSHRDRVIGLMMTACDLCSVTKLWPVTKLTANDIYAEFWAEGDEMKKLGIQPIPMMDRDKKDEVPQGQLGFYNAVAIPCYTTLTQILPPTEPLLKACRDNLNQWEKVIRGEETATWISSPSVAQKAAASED
Assay: in vivo PET competition with […]Lu AE92686, Lassen plot
Settings: two monkeys; i.v. pretreatment, mean plasma concentrations 685 and 749 ng/mL

Cn1cc(-c2ccncc2)c(-c2ccc(OCc3ccc4ccccc4n3)cc2)n1 [MP-10]
% PDE10A occupancy at […]: 93 and 95
